Among the data in ChEMBL document CHEMBL4376829, “Discovery and biological evaluation of vinylsulfonamide derivatives as highly potent, covalent TEAD autopalmitoylation inhibitors” (Eur J Med Chem, 2019) are inhibition and Activity values, retold here.

The target in test [1] is Tyrosine-protein kinase Yes (Homo sapiens) (UniProt P07947). In words: Inhibition of recombinant full-length human Yes at 10 uM using poly(Glu, Tyr) 4:1 as substrate measured after 40 mins in presence of [gamma33P]ATP by scintillation counting method relative to control.
Tyrosine-protein kinase Yes (Homo sapiens), sequence (P07947 2-543 limits assumed): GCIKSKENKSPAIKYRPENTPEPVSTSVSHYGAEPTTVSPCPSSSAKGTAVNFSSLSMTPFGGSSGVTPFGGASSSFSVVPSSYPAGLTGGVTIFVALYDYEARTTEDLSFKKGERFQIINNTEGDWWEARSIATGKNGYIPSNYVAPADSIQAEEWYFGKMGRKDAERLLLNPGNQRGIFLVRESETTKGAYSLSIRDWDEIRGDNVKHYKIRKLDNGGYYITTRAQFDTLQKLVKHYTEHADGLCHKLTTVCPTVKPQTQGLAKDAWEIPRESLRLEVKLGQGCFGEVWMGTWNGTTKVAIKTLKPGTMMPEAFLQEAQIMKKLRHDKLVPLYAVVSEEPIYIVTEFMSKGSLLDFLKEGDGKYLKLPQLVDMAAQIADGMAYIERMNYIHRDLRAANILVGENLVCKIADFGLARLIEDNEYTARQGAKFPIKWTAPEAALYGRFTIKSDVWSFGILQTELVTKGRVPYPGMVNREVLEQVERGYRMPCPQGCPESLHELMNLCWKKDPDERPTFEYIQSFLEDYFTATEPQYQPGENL
The target in test [2] is Histone acetyltransferase KAT2A (Homo sapiens) (UniProt Q92830). In words: Inhibition of human GCN5 at 10 uM after 1 hr by radioisotope-based assay relative to control.
The target in test [3] is CDK4/Cyclin D3 (Homo sapiens) (UniProt P11802+P30281). Put plainly: Inhibition of recombinant full-length human CDK4/cyclinD3 at 10 uM using Rb fragment as substrate measured after 40 mins in presence of [gamma33P]ATP by scintillation counting method relative to control. It counts as protein-complex assay.
For test [4], the target named is Serine-protein kinase ATM (Homo sapiens) (UniProt Q13315). Put plainly: Inhibition of recombinant full-length human ATM at 10 uM using GST-cMyc-p53 as substrate measured after 40 mins by EIA method relative to control.
The next test relates to Saccharomyces cerevisiae. In words: Inhibition of recombinant fungi CK1 (2 to 298 residues) at 10 uM using KRRRALS(p)VAS as substrate incubated for 40 mins in presence of [gamma-33P]-ATP by scintillation counting method relative to control.
Test [5] has as its target ALK tyrosine kinase receptor (Homo sapiens) (UniProt Q9UM73). In words: Inhibition of recombinant human ALK (1058 to end residues) at 10 uM using KKKSPGEYVNIEF as substrate after 40 mins in presence of [gamma33P]ATP by scintillation counting method relative to control.
Test [6] addresses LIM domain kinase 1 (Homo sapiens) (UniProt P53667). Put plainly: Inhibition of recombinant human LIMK1 (285 to 638 residues) at 10 uM using cofilin as substrate measured after 40 mins in presence of [gamm33P]ATP by scintillation counting method relative to control.
In test [7] the target is Phosphorylase b kinase gamma catalytic chain, skeletal muscle/heart isoform (Homo sapiens) (UniProt Q16816). In words: Inhibition of full-length recombinant human PHKgamma1 at 10 uM using KKLNRTLSFAEPG as substrate after 120 mins by in presence of [gamma33P]ATP by scintillation counting method relative to control.
Phosphorylase b kinase gamma catalytic chain, skeletal muscle/heart isoform (Homo sapiens), sequence (Q16816 whole entry, looked up, canonical isoform): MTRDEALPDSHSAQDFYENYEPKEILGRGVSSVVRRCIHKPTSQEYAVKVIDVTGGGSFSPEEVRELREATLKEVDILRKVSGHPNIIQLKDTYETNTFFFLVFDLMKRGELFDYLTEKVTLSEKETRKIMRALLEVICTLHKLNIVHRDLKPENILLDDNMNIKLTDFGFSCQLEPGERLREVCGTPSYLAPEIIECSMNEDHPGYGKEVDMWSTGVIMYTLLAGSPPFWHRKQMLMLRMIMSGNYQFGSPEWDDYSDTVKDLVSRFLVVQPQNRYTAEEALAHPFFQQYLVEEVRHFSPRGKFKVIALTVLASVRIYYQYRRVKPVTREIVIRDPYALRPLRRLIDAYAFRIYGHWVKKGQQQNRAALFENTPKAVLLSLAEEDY
For test [8], the target named is Dual specificity mitogen-activated protein kinase kinase 2 (Homo sapiens) (UniProt P36507). In words: Inhibition of recombinant full-length human MEK2 at 10 uM using MBP as substrate measured after 40 mins in presence of [gamma33P]ATP by scintillation counting method relative to control.
Test [9] addresses NUAK family SNF1-like kinase 2 (Homo sapiens) (UniProt Q9H093). In words: Inhibition of recombinant human full length NUAK2 at 10 uM using KKKVSRSGLYRSPSMPENLNRPR as substrate incubated for 40 mins in presence of [gamma-33P]-ATP by scintillation counting method relative to control.
The target of test [10] is Eukaryotic translation initiation factor 2-alpha kinase 3 (Homo sapiens) (UniProt Q9NZJ5). Put plainly: Inhibition of recombinant human PEK (536 to end residues) at 10 uM using RSRSRSRSRSRSRSR as substrate measured after 40 mins in presence of [gamma33P]ATP by scintillation counting method relative to control.
Eukaryotic translation initiation factor 2-alpha kinase 3 (Homo sapiens), sequence (Q9NZJ5 whole entry): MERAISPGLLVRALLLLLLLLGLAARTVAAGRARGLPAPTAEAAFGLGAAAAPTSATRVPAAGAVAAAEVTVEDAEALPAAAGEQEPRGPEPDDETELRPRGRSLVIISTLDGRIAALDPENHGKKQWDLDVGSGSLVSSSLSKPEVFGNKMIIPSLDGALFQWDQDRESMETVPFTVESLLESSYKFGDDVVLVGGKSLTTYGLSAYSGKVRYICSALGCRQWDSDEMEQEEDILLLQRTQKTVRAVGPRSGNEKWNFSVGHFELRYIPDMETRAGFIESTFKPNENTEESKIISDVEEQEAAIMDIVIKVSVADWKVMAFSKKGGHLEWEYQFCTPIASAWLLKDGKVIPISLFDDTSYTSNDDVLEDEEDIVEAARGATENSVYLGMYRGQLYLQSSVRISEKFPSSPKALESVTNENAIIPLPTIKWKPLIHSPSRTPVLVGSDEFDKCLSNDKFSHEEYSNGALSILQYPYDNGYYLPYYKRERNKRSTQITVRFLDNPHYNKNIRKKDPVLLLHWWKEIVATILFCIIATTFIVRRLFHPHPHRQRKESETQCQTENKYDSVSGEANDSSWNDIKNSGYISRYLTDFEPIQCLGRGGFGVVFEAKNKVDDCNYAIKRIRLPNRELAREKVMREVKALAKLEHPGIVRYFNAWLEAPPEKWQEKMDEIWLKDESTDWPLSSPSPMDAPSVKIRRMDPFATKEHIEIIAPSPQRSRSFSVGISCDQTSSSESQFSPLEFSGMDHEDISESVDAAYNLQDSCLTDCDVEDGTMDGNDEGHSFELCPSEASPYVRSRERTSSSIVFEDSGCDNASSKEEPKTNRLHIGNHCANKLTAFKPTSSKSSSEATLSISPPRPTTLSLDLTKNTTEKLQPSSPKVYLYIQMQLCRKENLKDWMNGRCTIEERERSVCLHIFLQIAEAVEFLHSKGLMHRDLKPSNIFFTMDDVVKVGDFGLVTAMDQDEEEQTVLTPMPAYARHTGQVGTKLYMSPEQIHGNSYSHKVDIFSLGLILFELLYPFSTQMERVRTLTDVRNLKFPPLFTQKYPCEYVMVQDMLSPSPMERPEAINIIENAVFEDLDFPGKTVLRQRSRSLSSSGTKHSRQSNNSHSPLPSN
Test [11] has as its system RAC-gamma serine/threonine-protein kinase (Homo sapiens), Q9Y243 [S472D]. Put plainly: Inhibition of recombinant human PKBgamma S472D mutant (117 to end residues) at 10 uM using GRPRTSSFAEGKK as substrate after 40 mins by in presence of [gamma33P]ATP by scintillation counting method relative to control.
For test [12], the target named is Phosphatidylinositol 4-phosphate 5-kinase type-1 gamma (Homo sapiens) (UniProt O60331). In words: Inhibition of recombinant full-length human PIP5K1g at 10 uM using phosphatidylinositol 4-phosphate as substrate measured after 40 mins by fluorescence assay relative to control.
Test [13] deals with CDK3/Cyclin E (Homo sapiens) (UniProt P24864+Q00526). Put plainly: Inhibition of recombinant full-length human CDK3/cyclinE at 10 uM using histone H1 as substrate measured after 40 mins in presence of [gamma33P]ATP by scintillation counting method relative to control. It counts as protein-complex assay.
Test [14] has as its system Angiopoietin-1 receptor (Homo sapiens), Q02763 [Q939H,Q940H]. Put plainly: Inhibition of human Tie2 Q939H/Q940H mutant (771 to end residues) at 10 uM using poly(Glu, Tyr) 4:1 as substrate measured after 40 mins in presence of [gamma33P]ATP by scintillation counting method relative to control.
Test [15] deals with Serine/threonine-protein kinase mTOR (Homo sapiens) (UniProt P42345). Put plainly: Inhibition of recombinant full-length human mTOR at 10 uM after 40 mins in presence of [gamma33P]ATP by scintillation counting analysis relative to control.
Test [16] is filed under the species Homo sapiens. Put plainly: Inhibition of TEAD transcriptional activity in human HCT116 cells assessed as reduction in CYR61 expression by qRT-PCR analysis. It counts as cell-based. On the technique in general: Real-time PCR tracks product formation cycle by cycle.
The target in test [17] is Tyrosine-protein kinase JAK2 (Homo sapiens) (UniProt O60674). Put plainly: Inhibition of recombinant human JAK2 (808 to end residues) at 10 uM using KTFCGTPEYLAPEVRREPRILSEEEQEMFRDFDYIADWC as substrate measured after 40 mins in presence of [gamm33P]ATP by scintillation counting method relative to control.
The species named for test [18] is Homo sapiens. In words: Inhibition of recombinant human MAPKAPK2 A399G mutant (46 to end residues) at 10 uM using KKLNRTLSVA as substrate measured after 40 mins in presence of [gamma33P]ATP by scintillation counting method relative to control.
The species entered for test [19] is Homo sapiens. Put plainly: Inhibition of recombinant human TEC activated F514V mutant (174 to end residues) at 10 uM using EFPIYDFLPAKKK as substrate measured after 40 mins in presence of [gamm33P]ATP by scintillation counting method relative to control.
The test system of test [20] is eIF-2-alpha kinase GCN2 (Homo sapiens), Q9P2K8 [E556G]. Put plainly: Inhibition of full length recombinant human GCN2 E556G mutant at 10 uM using RSRSRSRSRSRSRSR as substrate after 40 mins in presence of [gamma33P]ATP by scintillation counting method relative to control.
eIF-2-alpha kinase GCN2 (Homo sapiens), Q9P2K8 [E556G], sequence (Q9P2K8 whole entry E556G): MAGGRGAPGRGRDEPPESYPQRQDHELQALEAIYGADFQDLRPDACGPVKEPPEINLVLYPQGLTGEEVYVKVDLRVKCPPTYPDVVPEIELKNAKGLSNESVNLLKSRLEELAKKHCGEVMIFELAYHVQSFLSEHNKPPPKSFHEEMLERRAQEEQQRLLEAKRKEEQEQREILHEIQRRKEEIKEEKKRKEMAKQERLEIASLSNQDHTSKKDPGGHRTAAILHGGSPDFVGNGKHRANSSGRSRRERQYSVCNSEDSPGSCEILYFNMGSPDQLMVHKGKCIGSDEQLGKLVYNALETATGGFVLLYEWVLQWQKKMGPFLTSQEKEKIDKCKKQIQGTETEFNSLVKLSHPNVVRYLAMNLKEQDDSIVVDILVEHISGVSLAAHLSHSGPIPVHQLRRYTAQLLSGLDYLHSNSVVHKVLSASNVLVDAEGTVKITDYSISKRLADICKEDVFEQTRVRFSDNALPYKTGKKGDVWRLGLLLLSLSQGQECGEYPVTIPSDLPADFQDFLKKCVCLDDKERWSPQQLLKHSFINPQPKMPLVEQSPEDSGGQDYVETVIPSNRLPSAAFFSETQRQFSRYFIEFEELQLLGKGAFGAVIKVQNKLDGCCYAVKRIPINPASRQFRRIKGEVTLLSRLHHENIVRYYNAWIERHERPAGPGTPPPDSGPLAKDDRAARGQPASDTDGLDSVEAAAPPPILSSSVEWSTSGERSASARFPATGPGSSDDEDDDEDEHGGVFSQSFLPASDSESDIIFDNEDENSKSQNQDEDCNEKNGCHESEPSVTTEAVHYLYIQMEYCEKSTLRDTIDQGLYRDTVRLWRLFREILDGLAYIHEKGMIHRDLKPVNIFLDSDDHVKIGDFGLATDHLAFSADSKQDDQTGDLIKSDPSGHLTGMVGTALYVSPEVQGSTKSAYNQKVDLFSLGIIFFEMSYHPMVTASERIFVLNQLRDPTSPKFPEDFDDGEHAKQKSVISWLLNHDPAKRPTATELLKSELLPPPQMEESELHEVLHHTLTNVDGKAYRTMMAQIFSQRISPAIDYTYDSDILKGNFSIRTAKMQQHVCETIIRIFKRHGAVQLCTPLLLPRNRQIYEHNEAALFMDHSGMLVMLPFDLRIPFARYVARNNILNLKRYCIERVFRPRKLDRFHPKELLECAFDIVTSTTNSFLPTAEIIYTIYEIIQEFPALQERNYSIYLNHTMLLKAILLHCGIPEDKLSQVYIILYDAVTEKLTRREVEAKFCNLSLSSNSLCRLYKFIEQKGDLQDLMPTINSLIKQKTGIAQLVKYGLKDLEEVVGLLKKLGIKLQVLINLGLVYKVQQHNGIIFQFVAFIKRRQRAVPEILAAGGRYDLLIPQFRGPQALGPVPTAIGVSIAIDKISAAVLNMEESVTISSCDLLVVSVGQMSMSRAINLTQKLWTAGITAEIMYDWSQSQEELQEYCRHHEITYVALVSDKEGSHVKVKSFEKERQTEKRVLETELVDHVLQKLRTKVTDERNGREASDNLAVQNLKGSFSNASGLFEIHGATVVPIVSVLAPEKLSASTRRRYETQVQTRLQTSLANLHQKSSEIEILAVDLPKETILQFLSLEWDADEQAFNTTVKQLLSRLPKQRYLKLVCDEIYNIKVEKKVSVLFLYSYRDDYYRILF
Test [21] addresses Tyrosine-protein kinase Lck (Homo sapiens) (UniProt P06239). Put plainly: Inhibition of recombinant full-length human LCK at 10 uM using KVEKIGEGTYGVVYK as substrate measured after 40 mins in presence of [gamm33P]ATP by scintillation counting method relative to control.
For test [22], the target named is Transcriptional enhancer factor TEF-3 (Homo sapiens, UniProt Q15561). In words: Binding affinity to Flag-tagged TEAD4 (unknown origin) expressed in HEK293T cells assessed as modification in Cys367 residue at 50 uM after 4 hrs by MS analysis. It counts as cell-based.
Test [23] has as its target Histone acetyltransferase KAT6A (Homo sapiens) (UniProt Q92794). In words: Inhibition of human MOZ at 10 uM relative to control.

Activity calls are given as the source filed them. No cut-off for these calls is given here.

Tyrosine-protein kinase Lck (Homo sapiens), sequence (P06239 2-509 limits assumed): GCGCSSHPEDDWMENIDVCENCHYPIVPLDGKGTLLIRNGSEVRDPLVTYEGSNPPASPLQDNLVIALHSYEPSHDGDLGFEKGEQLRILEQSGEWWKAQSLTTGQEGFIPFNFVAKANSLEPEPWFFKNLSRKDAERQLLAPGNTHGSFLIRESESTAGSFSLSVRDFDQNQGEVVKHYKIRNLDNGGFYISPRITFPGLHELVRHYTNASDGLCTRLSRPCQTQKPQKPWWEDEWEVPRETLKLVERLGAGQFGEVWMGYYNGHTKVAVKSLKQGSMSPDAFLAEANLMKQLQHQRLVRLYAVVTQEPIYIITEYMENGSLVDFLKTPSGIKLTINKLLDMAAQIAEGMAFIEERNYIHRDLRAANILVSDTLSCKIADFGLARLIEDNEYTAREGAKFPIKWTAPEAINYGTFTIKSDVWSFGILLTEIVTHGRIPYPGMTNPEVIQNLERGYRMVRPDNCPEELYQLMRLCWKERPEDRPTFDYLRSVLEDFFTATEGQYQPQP
LIM domain kinase 1 (Homo sapiens), sequence (P53667 whole entry, looked up, the tested form may be a part, canonical isoform): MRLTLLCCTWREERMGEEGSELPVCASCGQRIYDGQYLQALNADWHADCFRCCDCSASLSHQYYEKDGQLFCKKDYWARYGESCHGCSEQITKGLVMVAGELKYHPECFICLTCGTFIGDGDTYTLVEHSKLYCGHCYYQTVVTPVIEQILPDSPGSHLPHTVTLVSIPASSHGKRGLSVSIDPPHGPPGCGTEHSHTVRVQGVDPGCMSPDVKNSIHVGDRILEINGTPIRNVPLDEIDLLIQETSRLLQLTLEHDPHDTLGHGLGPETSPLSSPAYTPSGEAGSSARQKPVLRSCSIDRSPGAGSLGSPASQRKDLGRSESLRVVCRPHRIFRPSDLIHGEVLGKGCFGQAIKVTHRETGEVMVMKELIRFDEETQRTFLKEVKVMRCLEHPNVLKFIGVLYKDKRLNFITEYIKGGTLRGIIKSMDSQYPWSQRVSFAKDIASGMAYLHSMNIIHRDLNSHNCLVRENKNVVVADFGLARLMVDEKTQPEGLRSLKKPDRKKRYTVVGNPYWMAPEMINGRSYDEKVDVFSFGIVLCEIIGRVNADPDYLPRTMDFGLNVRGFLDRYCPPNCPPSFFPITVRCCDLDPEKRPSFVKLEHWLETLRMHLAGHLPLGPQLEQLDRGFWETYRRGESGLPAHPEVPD

For the molecule `C=CS(=O)(=O)Nc1ccc(Cc2ccc3ccccc3c2)cc1`, the inhibition in test [1] worked out at 3%; in [2] it was 2%; in [3], 11%; in test [4], 2%; in the test on Saccharomyces cerevisiae, 5%; in test [5], 0%. The inhibition in [6] is -1%; in [7], -3%; in test [8], -9%; in test [9] it was -6%; in test [10] it was -1%; in test [11], 8%. The inhibition is -3% in test [12]; 7% in [13]; 18% in test [14]; 5% in test [15]; “Dose-dependent effect” in the test listed under Homo sapiens [16]; 6% in test [17]. In addition, the inhibition in the test filed under Homo sapiens [18] was -6%; in the test filed under Homo sapiens [19], -8%; in test [20], 3%; in [21], 6%; in test [23], 7%. Also, the result in test [22] was Active.

By inhibition is commonly meant the relative decrease from the control value, in per cent.
